A short description of this data set: Particle size measurement by Malvern Particle Size Analyzer (Mastersizer-Hydro 2000 S M). Type of data set: physicochemical. The note with it: 1 g in 100 ml dispersant medium; prothioconazole prepared according to Example 3. The procedure:
Particle Size Measurement by Malvern Particle Size Analyzer
Sample preparation and method of analysis: 1 g of Prothioconazole was taken in 100 ml dispersant medium. The content was mixed well and analyzed in Malvern Mastersizer-Hydro 2000 S M.

As for `OC(Cc1ccccc1Cl)(Cn1ncnc1S)C1(Cl)CC1` (centres unmarked) [Prothioconazole, 2-(1-chloro-cyclopropyl)-1-(2-chlorophenyl)-3-(5-mercapto-1,2,4-triazol-1-yl)-propan-2-ol], the “d (0.5) particle size (volume distribution)” value is given as 202.967 um and the “d (0.9) particle size (volume distribution)” value turned out to be 367.723 um.

Source of the values: patent publication US11634394B2, “Process for preparation of fungicidally active triazole compounds” (UPL LTD, priority 2018, dated 2023).
